Read-outs that look alike come from different tables or passages of the source. Bridges are numbered along the chain shown (N, C = ends). Where no end group is shown, it is not given here.
B1: murine amylin (peptide, UniProt P12968 38-74, looked up)
peptide: KCNTATCATQRLANFLVRSSNNLGPVLPPTNVGSNTY-NH2
modifications: disulfide 2-7; also: FITC (<1 mol/mol, position not given here) on labelled copy only
notes: murine amylin (islet amyloid polypeptide), the 37-residue hormone; numbers count on: the mature protein; The unlabelled ligand and the FITC-labelled copy are written as one molecule; also called free murine amylin; non-conjugated amylin; source: synthetic peptide, bought: Genemed Synthesis Inc

How the values were obtained:
[1] = test system: Trypsin; assay: trypsin in 25 mM ammonium bicarbonate, after reduction with dithiothreitol and blockage with iodoacetamide; settings: 37°C, up to 18 h
[2] = Pharmacokinetics after subcutaneous administration in mice (serum amylin by ELISA); format: in vivo; settings: Swiss male mice, s.c., 400 μg peptide/kg; for level at time molar at 5 s / level at time molar at 0.5 min / level at time molar at 1 min / level at time molar at 2 min / level at time molar at 4 min / level at time molar at 0.8 h: male, Swiss, 400 ug peptide/kg, ELISA, read-out: amylin concentration (serum); for level at time molar at 5 s: Time 0.0833 (head: min); for level at time molar at 0.5 min: Time 0.5 (head: min); for level at time molar at 1 min: Time 1 (head: min); for level at time molar at 2 min: Time 2 (head: min); for level at time molar at 4 min: Time 4 (head: min); for level at time molar at 0.8 h: Time 48 (head: min)
Experimental: Swiss male mice (8 weeks old; n = 4 per group) were administrated of free or monoPEGylated human amylin (both at 400 μg peptide / kg body weight) by subcutaneous route. At the indicated time interval, blood was collected with glass capillary tubes from retro-orbital access and the serum was separated. The concentration of amylin in the plasma was evaluated by ELISA (Merck Millipore, cat # EZHA-52K) by following the manufacturer protocol. The sensitivity of the ELISA assay kit for the monoPEGylated human amylin product was similar to the non-conjugated human amylin as inferred from control analytical curves. In case needed, the mice plasma samples were diluted accordingly in order to achieve the desired concentration range of the ELISA kit. Glucagon was evaluated from the same serum samples, by using an ELISA kit (Merck Millipore, Cat # EZGLU-30K) according to instructions of the manufacturer.
Continuous lines are best fitting of single-exponential decay function to data. b) Modulation of glucagon. […] The raw data can be found in S2 File.

[3] = cited from earlier work
Description: One additional limitation for the use of the currently available amylinomimetic compound is the lack of ability for mimicking the basal levels of amylin in the fasting state. […] (Fig 6A) and thus a sustained release of amylin of an increasing in its t1/2 would serve as potential strategies for the restoration of basal hormone levels. […] Additionall ...

[4] = target: T1, human receptor-activity modifying protein 3 Extracellular Topological Domain (human, UniProt O60896 28-117, fluorescein (FITC, below 1 mol per mol protein, position not stated)); assay: fluorescence polarisation; fluorescence anisotropy of the FITC-labelled protein (50 nM murine amylin, CTR1 or RAMP3) against total concentration of unlabelled ligand; PBS pH 7.4, 25°C; ex 480 nm, em 520 nm, cut-off filter 515 nm; settings: both partners purified
T1 construct: human receptor-activity modifying protein 3, extracellular topological domain, residues 28-117 of O60896; pET28b construct with a thrombin cleavage site after the N-terminal histidine tag; no cleavage is told; also called RAMP3-ETD; RAMP3
T1 sequence (looked up): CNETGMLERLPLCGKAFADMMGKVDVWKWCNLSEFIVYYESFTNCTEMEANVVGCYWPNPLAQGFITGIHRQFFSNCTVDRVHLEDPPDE

[5] = target: B1; assay: as above; settings: both partners purified
[6] = fit of serum concentration vs time
[7] = mouse, in vivo, sc, replicate column 1
[8] = mouse, in vivo, sc, replicate column 2

For “KCNTATCATQRLANFLVHSSNNFGAILSSTNVGSNTY-CONH2”, the cleaved bond [1] was “Arg11-L12”.

With `CC[C@H](C)[C@H](NC(=O)[C@H](C)NC(=O)CNC(=O)[C@H](Cc1ccccc1)NC(=O)[C@H](CC(N)=O)NC(=O)[C@H](CC(N)=O)NC(=O)[C@H](CO)NC(=O)[C@H](CO)NC(=O)[C@H](Cc1c[nH]cn1)NC(=O)[C@@H](NC(=O)[C@H](CC(C)C)NC(=O)[C@H](Cc1ccccc1)NC(=O)[C@H](CC(N)=O)NC(=O)[C@H](C)NC(=O)[C@H](CC(C)C)NC(=O)[C@H](CCCNC(=N)N)NC(=O)[C@H](CCC(N)=O)NC(=O)[C@@H](NC(=O)[C@H](C)NC(=O)[C@@H]1CSSC[C@H](NC(=O)[C@@H](N)CCCCN)C(=O)N[C@@H](CC(N)=O)C(=O)N[C@@H]([C@@H](C)O)C(=O)N[C@@H](C)C(=O)N[C@@H]([C@@H](C)O)C(=O)N1)[C@@H](C)O)C(C)C)C(=O)N[C@@H](CC(C)C)C(=O)N[C@@H](CO)C(=O)N[C@@H](CO)C(=O)N[C@H](C(=O)N[C@@H](CC(N)=O)C(=O)N[C@H](C(=O)NCC(=O)N[C@@H](CO)C(=O)N[C@@H](CC(N)=O)C(=O)N[C@H](C(=O)N[C@@H](Cc1ccc(O)cc1)C(N)=O)[C@@H](C)O)C(C)C)[C@@H](C)O` [human amylin] the “Half Life (One phase decay, best-fit value)” value ([2]; (unit not given)) was 0.3893, the “Tau (One phase decay, best-fit value)” value ([2]; (unit not given)) was 0.5616 and the “K (One phase decay, best-fit value)” value [2, 6] was 1.781. For the same molecule, the “Plateau (One phase decay, best-fit value)” value [2, 6] was 184.9, the “Span (One phase decay, best-fit value)” value [2, 6] was 6701 and the “Y0 (One phase decay, best-fit value)” value [2, 6] was 6886. For the same molecule, the level at time molar at 5 s [2, 7] was 6630 nM, the level at time molar at 5 s [2, 8] was 6710 nM and the level at time molar at 0.5 min [2, 7] was 4690 nM. The level at time molar at 0.5 min [2, 8] was 659 nM, the level at time molar at 1 min [2, 7] was 2720 nM and the level at time molar at 1 min [2, 8] was 423 nM. For the same molecule, the level at time molar at 2 min [2, 7] was 593 nM, the level at time molar at 2 min [2, 8] was 324 nM and the level at time molar at 4 min [2, 7] was 198 nM. It also gave a level at time molar at 4 min [2, 8] of 207 nM, a level at time molar at 0.8 h [2, 7] of 22.7 nM and a level at time molar at 0.8 h [2, 8] of 18.2 nM. For the same molecule, the half-life ([2]; mouse, in vivo, sc, serum amylin by ELISA, single-exponential decay fit, n = 4 per group) was 23 min and the “half-life (t1/2)” value [3] was 15 to 20 min.

B1: binds [4].

B2: monoPEGylated human amylin (peptide, UniProt P10997 34-70, looked up)
peptide: KCNTATCATQRLANFLVHSSNNFGAILSSTNVGSNTY-NH2
modifications: disulfide 2-7; also: one methoxy-PEG 5 kDa (mPEG succinimidyl carbonate) at an amino group of Lys1, N-terminal region
notes: human amylin (islet amyloid polypeptide, IAPP), the 37-residue hormone, amino acids 1 to 37; numbers count on: the mature protein; The PEG site was placed by trypsin digestion and MALDI-ToF-MS: fragment 12-37 is unmodified; also called PEGylated amylin; hAmylin-PEG
B2: binds [5]; binds [4].

— article PMC4598023 (PLoS ONE, 2015)
